This note sets out measurements from patent publication US20250152758A1, “PROBE FOR NUCLEAR MEDICAL TESTING” (The University of Tokyo, priority 2022, published 2025).

One data set deals with T1, GGT (Homo sapiens, UniProt P19440).
T1 construct: purchased wako 307-50673
Put plainly: Enzymatic reaction between gGlu-4^125I-FMA and GGT, HPLC with radiation detector. It is filed as biochemical. As to conditions: 80 U/mL GGT, 37° C., 3.5 hours, radio-HPLC. The protocol:
The purified gGlu-4^125I-FMA was dissolved in DPBS(-) to prepare about 5 kBq/μL. The result of the radiation detector when 20 μL of DPBS(-) was added to 5 μL of this solution and the entire amount of 25 μL was injected into the analytical HPLC is shown in the upper left of FIG. 3. Here, the analysis conditions of HPLC are exactly the same as the conditions at the time of purification in FIG. 2.
For analysis of metabolites, 40 μL of a 100 U/mL GGT solution (final concentration: 80 U/mL) was added to 10 μL of the above gGlu-4^125I-FMA solution, and the mixture was stirred at 37° C. and 500 rpm for 3.5 hours using a shaker. The result of the radiation detector when a half amount 25 μL from this reaction liquid was injected for analysis is shown in the upper left of FIG. 3. The lower right is a result of extracting 254 nm with PDA when a cold preparation of 2-amino-5-iodobenzylalcohol obtained by producing azaquinone methide after gGlu-4^125I-FMA was metabolized by GGT, and reacting azaquinone methide with water that would be the main nucleophile in this enzymatic reaction experiment was analyzed under the same analysis conditions.

Data set [1] relates to SHIN3 (high GGT activity) cells. Put plainly: Intracellular uptake test in cells with high GGT activity, with or without GGT inhibitor GGsTop. It is filed as cell-based. The protocol: (§1) Intracellular uptake of gGlu-4^125I-FMA was evaluated using cells with high or low GGT activity and a GGT inhibitor, GGsTop, by the procedure shown in FIG. 4.
(§2) First, SHIN3 (high GGT activity) and SKOV3 (low GGT activity) cells were seeded in 12 well culture plates and incubated for 1 day. Next, the medium of each well was changed to fresh medium containing gGlu-4^125I-FMA (and GGsTop), and the cells were incubated for 6 hours. Thereafter, the medium was removed and the plates were washed three times with PBS(-). Then, the cells were collected, radioactivity from the cells was measured with a Y-counter, and the number of cells was counted.
(§3) Since there was almost no radioactivity in the third wash fraction and the radioactivity from the cell fraction was much higher than that, it is considered that the radioactivity from the cell fraction is derived from the nuclide retained in the cell.

In data set [2] the test system is A549 tumor (high GGT activity). Put plainly: Intratumoral administration to subcutaneous tumor model mouse, SPECT/CT imaging (high GGT tumor). It is filed as in vivo. The note with it: about 150 kBq intratumoral, images 30 minutes, 2 hours, 5 hours. The protocol:
(§4) On the basis of the results of Example 2, a probe was intratumorally administered to a subcutaneous tumor model mouse, and SPECT/CT imaging was performed.
(§5) A model mouse was prepared in which A549 cells with high GGT activity were transplanted subcutaneously on the left side of the body, and H226 cells with low GGT activity were transplanted subcutaneously on the right side of the body. Into subcutaneous tumors of A549 (high GGT activity, left side) and H226 (low GGT activity, right side), gGlu-4^125I-FMA of about 150 kBq in 30 μL PBS(-) was directly administered. SPECT/CT images were acquired 30 minutes, 2 hours, and 5 hours after administration.

Data set [3] concerns A549-luc-C8 cells with high GGT activity (peritoneal dissemination). Put plainly: Visualization of peritoneal metastasis by intraperitoneal administration, SPECT/CT and autoradiography. The data set is classed as in vivo, mouse. As to conditions: for signals in the abdomen (SPECT/CT): 5 hours after administration. The method, then:
Next, according to the procedure shown in the left figure of FIG. 7, peritoneal dissemination model mice were prepared, and gGlu-4^125I-FMA was intraperitoneally administered. First, A549-luc-C8 cells with high GGT activity were transplanted into the abdominal cavity of the mouse and bred for 1 week. Luciferin potassium was intraperitoneally administered, and tumor growth was confirmed by luminescence imaging using IVIS (right figure in FIG. 7). Next, gGlu-4^125I-FMA was intraperitoneally administered (to 3 MBq) to the peritoneal model mouse and a tumor-free mouse, and SPECT/CT imaging was performed by NanoSPECT/CT. […] They are shown as Maximum Intensity Projection (MIP) images.
In addition, the peritoneal dissemination model mouse in the left figure was dissected after 5 hours of imaging, and the intestines and mesentery were taken out and imaged by autoradiography (ARG) (FIG. 9). […] From this, it is considered that the signals scattered in the abdominal cavity in the SPECT/CT on the left of FIG. 8 correspond to the peritoneal dissemination.

For data set [4], the system named is SKOV3 (low GGT activity) cells. The experiment in a line: Intracellular uptake test in cells with low GGT activity. The data set is classed as cell-based. The note with it: SKOV3, 6 hours incubation, gamma counter. The protocol: as §1, §2, §3
Data set [5] concerns H226 tumor (low GGT activity). The experiment in a line: Intratumoral administration to subcutaneous tumor model mouse, SPECT/CT imaging (low GGT tumor). It is filed as in vivo. The note with it: about 150 kBq intratumoral, images 30 minutes, 2 hours, 5 hours. The protocol:
as §4, §5

Each structure is given as a SMILES string.

T1 sequence (P19440 whole entry, species assumed): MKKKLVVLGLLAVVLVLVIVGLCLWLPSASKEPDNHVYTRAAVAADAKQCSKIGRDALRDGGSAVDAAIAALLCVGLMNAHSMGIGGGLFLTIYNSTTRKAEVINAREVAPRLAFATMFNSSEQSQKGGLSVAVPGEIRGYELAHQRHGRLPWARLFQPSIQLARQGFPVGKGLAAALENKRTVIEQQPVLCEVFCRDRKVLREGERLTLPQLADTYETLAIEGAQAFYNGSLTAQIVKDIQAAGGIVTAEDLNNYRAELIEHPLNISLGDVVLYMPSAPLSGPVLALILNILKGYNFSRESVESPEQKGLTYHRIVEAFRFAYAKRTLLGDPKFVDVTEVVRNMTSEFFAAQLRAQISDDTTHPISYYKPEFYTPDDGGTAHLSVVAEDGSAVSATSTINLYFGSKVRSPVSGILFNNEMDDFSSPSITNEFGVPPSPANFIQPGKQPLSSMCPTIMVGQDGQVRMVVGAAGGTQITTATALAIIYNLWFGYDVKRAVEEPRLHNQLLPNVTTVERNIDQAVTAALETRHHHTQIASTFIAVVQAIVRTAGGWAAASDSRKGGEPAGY

Regarding `N[C@@H](CCC(=O)Nc1ccc([125I])cc1CF)C(=O)O` [gGlu-4^125I-FMA], on GGT, the “metabolite formed on reaction with GGT” value is reported as “converted to 2-amino-5-iodobenzylalcohol”. Also, the “uptake rate without inhibitor compared with the case of adding an inhibitor” value in data set [1] (SHIN3, 6 hours incubation, GGsTop as inhibitor, gamma counter, standardized by number of cells) was “about 30 times”. In addition, the “retention of incorporated probe in the cell after wash operation” value in data set [1] (three washes with PBS(-)) was “remains in the cell at a certain ratio and withstands washout”. For the same compound, the “radioactivity in tumor (SPECT/CT)” value in data set [2] is listed as “clearly remains”; in data set [5], “rapidly attenuated”. In data set [3] (i.p., after 30 minutes), the “clearance of probe from abdominal cavity (SPECT/CT)” value is listed as “almost disappeared from the abdominal cavity”. The “signals in the bladder (SPECT/CT)” value in data set [3] (i.p., after 30 minutes) is on record as “many signals gathered in the bladder”. Further, in data set [3] (peritoneal dissemination model mouse dissected after 5 hours of imaging), the “uptake in intestines and mesentery by autoradiography (ARG)” value is recorded as “uptake of radionuclides was observed in agreement with minute peritoneal dissemination”. In addition, the “signals in the abdomen (SPECT/CT)” value is listed as “only scattered signals remained in the abdomen” in data set [3] (peritoneal dissemination model mouse, i.p.) and “not observed” in data set [3] (tumor-free mouse, i.p.). For the same compound, in data set [4], the uptake rate result is on record as “suppressed to be low”.
